According to patent publication US11331291B2, “Method of and improved composition for treating triterpene-responsive conditions, diseases or disorders” (PHOENIX BIOTECHNOLOGY, INC., priority 2017, dated 2022):
Read-outs that look alike come from different tables or passages of the source.

What was measured:
[1] = system: primary corticalstriatal neuronal co-cultures containing glia; assay type: cell-based
Method: FIGS. 6A, 6B, 7A, 7B, 8A, and 8B depict the results of comparative cellular toxicities of the triterpenes to primary corticalstriatal neuronal co-cultures containing glia evaluated according to the example below: ursolic acid (FIGS. 6A, 6B), betulinic acid (FIGS. 7A, 7B) and oleanolic acid (FIGS. 8A, 8B). For FIGS. 6A, 7A and 8A, propidium iodide was added for one hour then the numbers of PI-positive cells were scored under automated high-content analysis on the Cellomics ArrayScan VTI. For FIGS. 6B, 7B and 8B, MTS substrate was added for two hours then co-culture wells were measured for absorbance at 450 nm using a multi-well plate reader.
We determined whether the reduced neuroprotective activity of Compositions I and II might be due to cellular toxicity of one or more of the individual triterpenes. We conducted a direct study of the cellular toxicities of oleanolic acid (OA), ursolic acid (UA), and betulinic acid (BA) using two independent measures of cell death: propidium iodide (PI) staining for nuclear breakdown and the MTS assay for cell metabolic activity. […] The MTS assay is a well-based assay in which cleavage of a tetrazolium reporter by mitochondrial enzymes produces colorimetric readout and reports relative numbers of healthy cells.

[2] = system: ARE target genes (Srx, Hmox1); assay: ARE gene expression qPCR in rat primary corticostriatal co-cultures; assay type: cell-based
Method: FIG. 3 (prior art: Van Kanegan: vide supra) depicts the results of ARE gene expression assays for Fraction 0-4 and the individual triterpenes oleanolic acid, ursolic acid, betulinic acid and uvaol (also referred to as uvalol). “X” symbols denote concentrations of compounds which induced toxicity and for which recovery of residual mRNA was insufficient to support qPCR analysis. Rat primary corticostriatal co-cultures were treated for 6 h with Fraction 0-4 (in μg/ml) or oleanolic acid, ursolic acid, betulinic acid, or uvaol (all in μM) at the concentrations indicated, then harvested and processed for qPCR analysis of the ARE target genes shown. Quantitative RNA values were normalized to the GAPDH reference control and fold-expression changes are expressed relative to the DMSO-carrier only condition (“--”) set to a value of 1. Dark bars denote statistically significant differences with respect to the DMSO-carrier only control by a Student's t-test at p<0.05.
FIG. 4 depicts the results of expression assays for Fraction 0-4 and the individual triterpenes ursolic acid and betulinic acid at more closely-spaced concentration ranges. Rat primary corticostriatal co-cultures were treated for 6 h with Fraction 0-4 (in μg/ml) or ursolic acid and betulinic acid (in μM) at the concentrations indicated, then harvested and processed for qPCR analysis of the ARE target genes shown. Quantitative RNA values were normalized to the GAPDH reference control and fold-expression changes are expressed relative to the DMSO-carrier only condition (“--”) set to a value of 1. Dark blue bars denote statistically significant differences with respect to the DMSO-carrier only control by a Student's t-test at p<0.05.
FIGS. 10A and 10B depict the results of comparative Srx (FIG. 10A) and Hmox1 (FIG. 10B) expression assays for PBI-05204, PBI-04711 (also referred to as Fxn 0-4), oleanolic acid (O), ursolic acid (U), betulinic acid (B) and combinations of the triterpenes present at the specified molar ratios. Quantitative RNA values were normalized to the GAPDH reference control and fold-expression changes are shown relative to the DMSO-carrier only condition set to a value of 1. Dark blue bars denote statistically significant differences with respect to the DMSO-carrier only control by a Student's t-test at p<0.05. Striped, red bars denote conditions which induced excessive levels of ARE gene expression, namely, by more than 10-fold.
For qPCR quantification of ARE target gene expression levels, cortical and striatal neurons were plated onto 96-well plates containing mature glial cultures and cultured for 96 h. Composition was added to cultures at the indicated concentrations for 6 h. At the end of the treatment period, cells were lysed and total RNA was isolated using Absolutely RNA mini-prep kits (Agilent Technologies/Stratagene). cDNA was generated using oligo dT primers and Superscript II reverse transcriptase (Invitrogen). Resulting cDNA was used for quantitative PCR of gene transcripts using SYBR Green Real-Time PCR Master Mix (Life Technologies) and the following mouse primers, for: Gcic (forward-5′ […]-3′ (SEQ ID NO. 1) and reverse-5′-[…]-3′) (SEQ ID NO. 2), Ngo1 (forward-5′-GCCCGCATGCAGATCCT-3′ (SEQ ID NO. 3) and reverse 5′-[…]3′) (SEQ ID NO. 4), Srx (forward-5′-[…]-3′ (SEQ ID NO. 5) and reverse-5′-[…]-3′) (SEQ ID NO. 6), and Hmox1 (forward-5′-[…]-3′ (SEQ ID NO. 7) and reverse-5′-[…]-3′) (SEQ ID NO. 8) (Integrated DNA Technologies). […]

[3] = system: cortical pyramidal neurons; conditions: prior art FIG. 5; equimolar basis; cited from earlier work
[4] = system: ARE target genes (Srx, Hmox1); conditions: 6 h; prior art FIG. 3; compared among UA, BA, OA; cited from earlier work

SMILES | concentration leading to 50% loss of metabolic activity [1] | cellular toxicity ([2]; even at low concentration) | ARE gene expression induction ([2]; single agent, any concentration tested, FIGS. 10A, 10B) | neuroprotective activity of individual triterpenes in OGD assay [3] | inducing ARE gene expression as single agent [4] | cellular toxicity [2] | upregulation of Srx and Hmox1 ([2]; 6 h, closely-spaced concentrations, FIG. 4) | ARE gene expression induction (Srxn1) ([2]; single agent at 9 μM, relative to DMSO)
C=C(C)[C@@H]1CC[C@]2(C(=O)O)CC[C@]3(C)[C@H](CC[C@@H]4[C@@]5(C)CC[C@H](O)C(C)(C)[C@@H]5CC[C@]43C)[C@@H]12 [BA, betulinic acid] | 5 to 15 µM | caused cellular toxicity |  |  |  |  |  | 
CC1(C)CC[C@]2(C(=O)O)CC[C@]3(C)C(=CC[C@@H]4[C@@]5(C)CC[C@H](O)C(C)(C)[C@@H]5CC[C@]43C)[C@@H]2C1 [OA, oleanolic acid] |  |  | not able to induce appreciable ARE gene expression | higher activity than UA | relatively inactive |  |  | 
C[C@H]1[C@H](C)CC[C@]2(C(=O)O)CC[C@]3(C)C(=CC[C@@H]4[C@@]5(C)CC[C@H](O)C(C)(C)[C@@H]5CC[C@]43C)[C@H]12 [UA, ursolic acid] | 5 to 15 µM |  |  | variable activity | considerably more potent | caused cellular toxicity | clear upregulation | > 10 fold
